In ChEMBL document CHEMBL1149702, “Toward novel HIV-1 integrase binding inhibitors: molecular modeling, synthesis, and biological studies” (Bioorg Med Chem Lett, 2007):

target: Human immunodeficiency virus type 1 integrase (Human immunodeficiency virus 1, UniProt Q7ZJM1); assay: Inhibition of HIV1 integrase
Sequence (Q7ZJM1 whole entry): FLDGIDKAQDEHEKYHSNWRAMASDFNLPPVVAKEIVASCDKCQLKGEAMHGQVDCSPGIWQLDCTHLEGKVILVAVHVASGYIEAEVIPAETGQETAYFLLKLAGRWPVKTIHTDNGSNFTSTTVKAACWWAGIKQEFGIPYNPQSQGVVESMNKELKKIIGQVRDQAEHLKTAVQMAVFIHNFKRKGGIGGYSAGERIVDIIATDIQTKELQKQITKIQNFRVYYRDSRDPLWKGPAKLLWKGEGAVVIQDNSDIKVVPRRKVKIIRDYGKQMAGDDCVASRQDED

Q: Which IC50 does the source give for `N#CC(=Cc1ccc(-c2cccc(C(=O)O)c2)o1)c1nc2ccccc2[nH]1` here?
A: 164 µM

Q: How did the IC50 turn out when `N#CC(=Cc1ccc(-c2cc([N+](=O)[O-])ccc2Cl)o1)c1nc2ccccc2[nH]1` was run?
A: 58.7 µM

Q: For `O=[N+]([O-])c1cccc(-c2ccc(/C=C/c3nc4ccccc4[nH]3)o2)c1`, which IC50 is on record?
A: 12 µM

Q: With `N#CC(=Cc1ccc(-c2ccc(Cl)c(C(=O)O)c2)o1)c1nc2ccccc2[nH]1` as the molecule, how does the IC50 read?
A: 90.4 µM

Q: With `N#CC(=Cc1ccc(-c2ccc(C(=O)O)cc2)o1)c1nc2ccccc2[nH]1` as the molecule, how does the IC50 read?
A: > 281 µM

Q: For `Cc1ccc(C(=O)O)cc1-c1ccc(C=C(C#N)c2nc3ccccc3[nH]2)o1`, which IC50 is on record?
A: 39.8 µM

Q: With `N#CC(=Cc1ccc(-c2ccc(O)c(C(=O)O)c2)o1)c1nc2ccccc2[nH]1` as the molecule, how does the IC50 read?
A: 68.7 µM

Q: How did the IC50 turn out when `N#CC(=Cc1ccc(-c2ccc(Cl)cc2)o1)c1nc2ccccc2[nH]1` was run?
A: > 289 µM

Q: Which IC50 does the source give for `O=[N+]([O-])c1ccccc1-c1ccc(/C=C/c2nc3ccccc3[nH]2)o1` here?
A: > 302 µM

Q: For `Cc1c(-c2ccc(/C=C/c3nc4ccccc4[nH]3)o2)cccc1[N+](=O)[O-]`, which IC50 is on record?
A: > 290 µM

Q: With `O=[N+]([O-])c1cc(Cl)ccc1-c1ccc(/C=C/c2nc3ccccc3[nH]2)o1` as the molecule, how does the IC50 read?
A: > 273 µM

Q: Which IC50 does the source give for `Cc1c(-c2ccc(C=C(C#N)c3nc4ccccc4[nH]3)o2)cccc1[N+](=O)[O-]` here?
A: 85.8 µM

Q: `N#CC(=Cc1ccc(-c2ccccc2[N+](=O)[O-])o1)c1nc2ccccc2[nH]1` was tested. Which IC50 did it give?
A: > 281 µM

Q: Which IC50 does the source give for `C/C(=C\c1ccc(-c2ccc(Cl)cc2[N+](=O)[O-])o1)c1nc2ccccc2[nH]1` here?
A: > 263 µM

Q: For `FC(F)(F)c1cccc(Cl)c1-c1ccc(/C=C/c2nc3ccccc3[nH]2)o1`, which IC50 is on record?
A: > 257 µM

Q: Which IC50 does the source give for `N#C/C(=C\c1ccc(-c2c(Cl)cccc2C(F)(F)F)o1)c1nc2ccccc2o1` here?
A: > 241 µM

Q: How did the IC50 turn out when `N#CC(=Cc1ccc(-c2ccc(C(=O)O)c(O)c2)o1)c1nc2ccccc2[nH]1` was run?
A: 70.3 µM

Q: For `N#CC(=Cc1ccc(-c2ccc(F)cc2C(=O)O)o1)c1nc2ccccc2[nH]1`, which IC50 is on record?
A: > 268 µM

Q: Which IC50 does the source give for `N#CC(=Cc1ccc(-c2cccc([N+](=O)[O-])c2)o1)c1nc2ccccc2[nH]1` here?
A: > 281 µM

Q: For `N#CC(=Cc1ccc(-c2cc(C(F)(F)F)ccc2Cl)o1)c1nc2ccccc2[nH]1`, which IC50 is on record?
A: 31.3 µM

Q: With `N#C/C(=C\c1ccc(-c2c(Cl)cccc2C(F)(F)F)o1)c1nc2ccccc2s1` as the molecule, how does the IC50 read?
A: > 232 µM

Q: For `N#C/C(=C\c1ccc(-c2ccc(Cl)cc2[N+](=O)[O-])o1)c1nc2ccccc2s1`, which IC50 is on record?
A: > 245 µM

Q: With `N#C/C(=C\c1ccc(-c2cccc([N+](=O)[O-])c2)o1)c1nc2ccccc2s1` as the molecule, how does the IC50 read?
A: > 268 µM

Q: Which IC50 does the source give for `Cc1ccc2[nH]c(C(C#N)=Cc3ccc(-c4ccc(Cl)cc4C(=O)O)o3)nc2c1` here?
A: 36.2 µM

Q: With `COc1c(C)cc(-c2ccc(C=C(C#N)c3nc4ccccc4[nH]3)o2)cc1C` as the molecule, how does the IC50 read?
A: > 271 µM

Q: How did the IC50 turn out when `CC(C)(C)OC(=O)Nc1ccc(-c2ccc(C=C(C#N)c3nc4ccccc4[nH]3)o2)cc1` was run?
A: > 235 µM

Q: For `NC(=O)/C(=C\c1ccc(-c2ccc(Cl)cc2[N+](=O)[O-])o1)c1nc2ccccc2[nH]1`, which IC50 is on record?
A: > 244 µM

Q: For `N#C/C(=C\c1ccc(-c2cccc([N+](=O)[O-])c2)o1)c1nc2ccccc2o1`, which IC50 is on record?
A: > 280 µM

Q: `COc1c(C)cc(-c2ccc(/C=C/c3nc4ccccc4[nH]3)o2)cc1C` was tested. Which IC50 did it give?
A: > 291 µM

Q: Which IC50 does the source give for `COc1ccc(-c2ccc(C=C(C#N)c3nc4ccccc4[nH]3)o2)cn1` here?
A: > 292 µM
